From PubChem BioAssay (NCI)
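Each compound was tested at five concentrations against cells in 96-well plates for 48 hours. GI50: concentration for 50% inhibition of growth. TGI is the concentration that stops growth completely.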

How the values were obtained:
Assay in all cases: growth of human tumour cells (NCI), 48 h
[1] = tested on: K-562 leukemia
[2] = tested on: MOLT-4 leukemia
[3] = tested on: NCI-H522 lung
[4] = tested on: SF-539 CNS
[5] = tested on: SK-MEL-2 melanoma
[6] = tested on: SN12C renal
[7] = tested on: U251 CNS
[8] = tested on: HCT-116 colon
[9] = tested on: HS 578T breast
[10] = tested on: MDA-MB-231 breast

SMILES	TGI [1] [µM]	TGI [2] [µM]	TGI [3] [µM]	TGI [4] [µM]	TGI [5] [µM]	TGI [6] [µM]	TGI [7] [µM]	TGI [8] [µM]	TGI [9] [µM]	TGI [10] [µM]	GI50 [1] [µM]	GI50 [10] [µM]	GI50 [2] [µM]	GI50 [4] [µM]	GI50 [5] [µM]	GI50 [6] [µM]	GI50 [7] [µM]
COc1cc(/C=C/C(=O)c2sc(-n3nc(-c4ccccc4)cc3-c3ccccc3)nc2C)ccc1O	> 100	> 100	> 100	> 100	> 100	> 100	> 100										
CCOC(=O)c1nc2ccc(C(F)(F)F)cc2nc1NCc1ccc(Cl)c(Cl)c1	> 100	> 100	33.5	> 100	> 100		> 100	> 100	80.7	> 100							
COc1cc(Br)c(OC)c2c(OC)cc(C)cc12	> 100	> 100	> 100	> 100	> 100	> 100	> 100	> 100	> 100	> 100							
CC1(C)C(=O)N(O)C(C)(C)N1O	> 10	> 10	> 10	> 10	> 10	> 10	> 10	> 10	> 10	> 10							
CC1=NC(=O)C(C)(c2ccccc2)N1CCc1ccccc1 (centres undefined)	> 100	94.7	> 100	> 100	> 100	> 100	> 100	> 100	> 100	> 100							
Cc1nn2c(=O)c([N+](=O)[O-])c(/C=C/c3ccccc3)nc2s1	> 26.7	20.8	12	5.89	12.4	> 100	7.99	15.4	> 100	> 100							
COc1ccc(/C=C(\Cl)c2ccc(OC)c(OC)c2)cc1OC	> 100	> 100	> 100	> 100	> 100	> 100	> 100	> 100	> 100	> 100							
CCOC(=O)/C(O)=C(/C=N\C(=S)Nc1ccccc1Cl)C(=O)OCC	> 100	> 100	> 100	> 100	> 100	> 100	> 100	> 100	> 100	> 100							
COc1ccc(/C=C2/C(C)=NN(c3cccc(Cl)c3)/C2=N/c2nc3ccccc3s2)cc1	> 100	63.8	35.2	60.7	41.8		47	33.9	66.1	67.5							
Cc1occc1C(=S)Nc1ccc(Cl)c(C(=O)OCC(F)(F)F)c1	59.1	55.8	45.5	18.1	44.9	41.4	39.3	33.1	> 100	35.2							
O=C(O)C1CC2C3CCC2C1C3=O (centres undefined)	> 100	> 100	> 100	> 100	> 100	> 100	> 100	> 100	> 100	> 100							
c1ccc(Nc2nnc(CSc3nc(-c4ccccc4)c(-c4ccccc4)[nH]3)s2)cc1		29.8	34.9	43.6	38.4	35	28.1	35.7									
N#CC(C#N)=CN1CCN(C(=O)c2ccco2)C1=S	> 100	> 100		7.55	12.8	16.5	> 100			17.3	6.57	2.92	5.22	2.48	4.28	3.12	6.54
CN(C)c1ccc(-c2c(C#N)c(N)[nH]c(=S)c2C#N)cc1	> 100		> 100	> 100	> 100	> 100	> 100	> 100	35.7	> 100							
NC1CC(=O)c2cc(Cl)sc21 (centres undefined)	> 100		> 100	> 100	> 100	> 100	> 100	> 100	> 100	> 100							
CCOC(=O)CSc1ccnc(=O)[nH]1	> 100	> 100	> 100	> 100	> 100	> 100	> 100	> 100									
O=C(O)c1c[nH]c2c(Sc3ccccc3)nccc2c1=O		> 100	> 100	> 100	> 100	> 100	> 100	> 100	> 100	> 100							
CN(C(=O)C12C3C4C1C1C2C3C41I)C(C)(C)C (centres undefined)	> 100	> 47.3	> 100	> 100	> 100	> 100	> 100	> 100									
CCCCCCn1c(SCC)c2ccccc2c1-c1nc(F)nc(F)n1	> 100	> 100	> 100	> 100	> 100	> 100	> 100	> 100									
N#CC1(C#N)C2CCCCC23OC(=N)C1(C#N)C(c1ccco1)O3 (centres undefined)	> 100	> 100		51.6	45.3	29.2		38.5	70.4	33							
COc1ccccc1C1CC(=O)CC(c2ccccc2OC)C12C(=O)NC(=S)NC2=O (centres undefined)	> 100	95.8	> 100	> 100	> 100	> 100	> 100	> 100		> 100							
COc1cc2c(/C=C3/C(=O)Nc4ccc(Cl)cc43)c(Cl)n(Cc3ccccc3)c2cc1C	> 100	5.02		7.69	34.9	5.24		> 100	> 100	6.04							
COc1ccc(/C=C2\OC(=O)C(Cl)=C2c2ccc(OC)cc2)cc1	> 100	> 100	> 100	> 100	> 100	> 100	> 100		> 100	> 100							
Nc1ccn(C2CC(O)C(COP(O)(=S)OC3CC(n4ccc(N)nc4=O)OC3CO)O2)c(=O)n1 (centres undefined)		> 100	> 100	> 100	> 100	> 100	> 100	> 100	> 100	> 100							

SMILES	TGI [1] [µM]	TGI [2] [µM]	TGI [3] [µM]	TGI [4] [µM]	TGI [5] [µM]	TGI [6] [µM]	TGI [7] [µM]	TGI [8] [µM]	TGI [9] [µM]	TGI [10] [µM]	GI50 [1] [µM]	GI50 [10] [µM]	GI50 [2] [µM]	GI50 [4] [µM]	GI50 [5] [µM]	GI50 [6] [µM]	GI50 [7] [µM]
CCOC(=O)/C(N=Nc1ccc(-n2c(C)nc3ccccc3c2=O)cc1)=C(/C)O	> 100	64.1		> 100	> 100	> 100	> 100	> 100	63.6	> 100							
COC(=O)[C@H](Cc1ccccc1)NC(=O)NCCN(CCNC(=O)N[C@@H](Cc1ccccc1)C(=O)OC)C(=O)N[C@@H](Cc1ccccc1)C(=O)OC	61	45	29.6	47.1	42.5		41.2	35.8	45.3	46.5							
CC1C2CC(CC(=O)N2)C1(C)C (centres undefined)	> 100		> 100	> 100		> 100	> 100	> 100	> 100	> 100							
O=C1NC(N2CCOCC2)=N/C1=C\c1cccs1		> 100	> 100	> 100	> 100	> 100	> 100	> 100	> 100	> 100							
NC(=S)NNC(=O)/C(=C/c1ccc(/C=C(\NC(=O)c2ccccc2)C(=O)NNC(N)=S)cc1)NC(=O)c1ccccc1	> 31.6	> 50.8	> 71.1	> 100	> 100	> 100	> 100	> 100									
COc1ccc(-c2ccc(-c3ccc(C(=N)N)nc3)s2)cc1	3.53			3.17		3.68				3.28	1.09	1.75		1.73		1.83	
Fc1c(F)c(C(F)(F)F)c(F)c(F)c1N/N=C\c1c[nH]c2ccccc12	10.5	10.3	5.57		8.81	11.8	12.8	14.5	28.9	12.7							
CC1CC2OC(=O)C3CC(O)CC(=C23)[C@@]12C[C@@H](c1ccoc1)OC2=O (some centres undefined)	> 100	> 100	> 100	> 100	> 100	> 100	> 100	> 100									
O=C(O)C(=C\c1ccc2c(c1)OCO2)/C(=C/c1ccc2c(c1)OCO2)C(=O)O	> 100	> 100			> 100	> 100	> 100	> 100	> 100								
CC(C)=CCOc1cc(NC(=S)c2ccoc2C)ccc1Cl		> 100	> 100	> 100	> 100	> 100	> 100	> 100	> 100	> 100							
COc1cc2c(cc1OC)-c1[nH]c3ccc(C#N)cc3c1CC(=O)N2		> 100	> 100	> 100		> 100	> 100		> 100	> 100							
CCOC(=O)NC(C(F)(F)F)(C(F)(F)F)P(=O)(OC(C)C)OC(C)C	> 100	> 100		> 100	> 100	> 100	> 100	> 100	> 100	> 100							
NCCCCNCCCN1CC1	> 26.4		19.9	2.59			28.9	> 100	2.14								
Cn1nc(Cc2ccc(Cl)cc2)n(N)c1=O	> 100	> 100		> 100		> 100	> 100	> 100		> 100							
COc1cc(S(=O)(=O)Nc2ccc(-c3csc(N4C(=O)CSC4c4cccs4)n3)cc2)ccc1Cl (centres undefined)	95.6	> 100	33.9	61.6	42.6	73.7		> 100	78.3								
CSC1=N[C@H](c2ccccc2)CS1	> 100	> 100		> 100	> 100	> 100	> 100	> 100	> 100								
C=C1C(=O)C([Si](C)(C)C)=C2C=C(C)C3(CC3)C12C (centres undefined)	54.1	11.9	66.2		61.1	> 100	> 100	> 100	> 100	84.6							
CC(C)c1ccccc1SC1CC(=O)CC(Sc2ccccc2C(C)C)C12O[C@H](c1ccccc1)[C@@H](c1ccccc1)O2 (some centres undefined)		> 100		> 100	> 100	47.9	40.1	> 100		71.8							
NC(=O)C(Nc1c(Cl)cccc1Cl)c1cc2cc(Br)ccc2nc1Cl (centres undefined)	> 100	57.6	> 100	> 100	> 100	> 100		> 100	> 100	> 100							
O=S(=O)([O-])[O-].[Fe+2].c1ccc(/C(=N\Nc2ccccn2)c2ccccn2)cc1	8.44	6.13	3.55	6.42	5.74	9.69	4.66	4.56									
O=P(O)(OCC(O)O)OCC(O)O	> 100	> 100	> 100	> 100	> 100		> 100	> 100									
O=C(c1ccc(Cl)cc1Cl)N(C(=O)N1CCC(c2ccccc2)CC1)c1ccccc1	> 100	75		> 100	> 100	> 100	> 100	> 100									
C/C(CN1C(=O)c2ccccc2C1=O)=N\NS(=O)(=O)c1ccc(Br)cc1	> 100	> 100	> 100	> 100	> 100	> 100	> 100	> 100									
